Assay results as given in US10524469B2, “Acetate derived compounds from geranylorcinol. synthesis process for obtaining said compounds and use of said compounds as antifungal against Botrytis cinerea” (UNIVERSIDAD TÉCNICA FEDERICO SANTA MARÍA, priority 2015, dated 2020).
Where two headings read alike, the source gives them in different places.

Tested on: Botrytis cinerea
Assay: Mycelial growth inhibition of B. cinerea, radial growth method in PDA
Format: cell-based
Conditions: for inhibition at 50 ppm / inhibition at 150 ppm / inhibition at 250 ppm: Botrytis cinerea; for Activity compared with the positive control when encapsulated in Pluronic F-127 micelle (in words): encapsulated in polymeric Pluronic F-127 micelle
Experimental: 20-40 milligrams of each of compounds 1 to 8 were dissolved in 500 microliters of Ethanol to have a stock solution of each compound according to its molecular weight. The stock solution was diluted in 5 mL of water so as to obtain a new stock solution of 5,000 ppm; from which corresponding aliquots were taken to achieve a final concentration on each plate with 50, 150 and 250 ppm potato dextrose agar (PDA) culture medium.
The method used for the preparation of polymeric micelles, based on Polycaprolactone (MW: 3.409 g/mol) or Pluronic® F-127 (MW: 12,500 g/mol) corresponds to the direct dissolution method consisting of the addition of the polymer to water with stirring and at room temperature, until the polymer dissolves to give a clear aqueous solution. The amount of polymer and water is chosen so as to have a solution of a concentration of 1×10^−3 M of polymer chains.
For the preparation of a solution of 50 mL of Pluronic F-127, 0.63 g is used and for the case of polycaprolactone 0.17 g is used.
The physical encapsulation of the compounds in the polymeric micelles (1×10^−3 M) is carried out by the emulsion method. The compound is dissolved in a volatile solvent (dichloromethane) and […] the polymer solution added in 100 μL aliquots to complete 400 μL reaching a concentration of 0.101 M of compound. By stirring in a vortex and applying ultrasound a very homogeneous milky emulsion is formed. The organic solvent is then removed by evaporation by heating the emulsion at 50° C. in a system open to air. Upon removal of the solvent, a clear solution remains containing the polymer forming micelles and the non-polar compounds which have been encapsulated in the hydrophobic micro-domain provided by the core of these polymeric micelles.
Subsequently, the solution is diluted by adding polymer solution corresponding to a 1×10^−3 M concentration until the compound of interest reaches a stock concentration in the range of 625-1,250 ppm in the micelle to be applied to the plate. This dilution should be done by adding polymer solution so as to maintain the same concentration of micelles and vary only the concentration of active ingredient.
In order to determine the inhibition of mycelial growth of B. cinerea, both for the free state and encapsulated compounds, the radial growth method in potato dextrose agar (PDA) culture medium was used. The compounds of interest in both free and encapsulated form were added to the PDA at different concentrations of 50, 150 and 250 ppm at a temperature of 50° C. Once the PDA had been solidified, a 4-mm diameter disc was seeded with mycelium of the pathogen in the center of the petri dish. The experiment consists of a negative control which is a petri dish where PDA culture medium and 1% Ethanol were added, in the case of Negative Control for encapsulated compounds it consists in adding only the micelle (polycaprolactone or Pluronic […]) free in PDA. In addition, a positive control containing commercially available fungicide Captan in PDA culture medium is included at the same concentrations tested in both its free form and also a positive control of Captan in its encapsulated form. Each treatment consisted of three replicates (n=3 replicates/compound/concentration).
After 48 (free state) and 72 (encapsulated system) hours of incubation at 23° C. under a photoperiod of 16 light hours/8 darkness hours, the mycelial growth inhibition percentage (MGIP) was calculated by assessing the measurement of the diameter of the fungus growth around the disc to calculate the mycelial growth inhibition area. In this way, the mycelial growth inhibition percentage that was compared to the corresponding controls after 48 hours of incubation was determined.

[1] = 48 h, read-out: Mycelial inhibition percentage of Botrityscinerea in vitro, free compound, 50 ppm in PDA, 48 hours of incubation
[2] = 48 h, read-out: Mycelial inhibition percentage of Botrityscinerea in vitro, free compound, 150 ppm in PDA, 48 hours of incubation
[3] = 48 h, read-out: Mycelial inhibition percentage of Botrityscinerea in vitro, free compound, 250 ppm in PDA, 48 hours of incubation
[4] = 72 h, read-out: Mycelial inhibition percentage of Botrityscinerea in vitro, encapsulated in Pluronic F-127 (Triblock) micelles, 50 ppm, 72 hours
[5] = 72 h, read-out: Mycelial inhibition percentage of Botrityscinerea in vitro, encapsulated in Pluronic F-127 (Triblock) micelles, 150 ppm, 72 hours
[6] = 72 h, read-out: Mycelial inhibition percentage of Botrityscinerea in vitro, encapsulated in Pluronic F-127 (Triblock) micelles, 250 ppm, 72 hours
[7] = 72 h, read-out: Mycelial inhibition percentage of Botrityscinerea in vitro, encapsulated in Polycaprolactone (Diblock) micelles, 50 ppm, 72 hours
[8] = 72 h, read-out: Mycelial inhibition percentage of Botrityscinerea in vitro, encapsulated in Polycaprolactone (Diblock) micelles, 150 ppm, 72 hours
[9] = 72 h, read-out: Mycelial inhibition percentage of Botrityscinerea in vitro, encapsulated in Polycaprolactone (Diblock) micelles, 250 ppm, 72 hours
[10] = encapsulated in Pluronic F-127 (Triblock) micelles, 50 ppm, 72 hours

Compound: CC(=O)Oc1cc(OC(C)=O)c(C/C=C(\C)CCC=C(C)C)c(C)c1C/C=C(\C)CCC=C(C)C [Formula 8]
- inhibition at 50 ppm [1]: 11%
- inhibition at 150 ppm [2]: 54%
- inhibition at 250 ppm [3]: 85%
- inhibition at 50 ppm [4]: 81 to 99%
- inhibition at 150 ppm [5]: 99%
- inhibition at 250 ppm [6]: 99%
- inhibition at 50 ppm [7]: 0%
- inhibition at 150 ppm [8]: 36%
- inhibition at 250 ppm [9]: 36%
- Mycelial inhibition percentage of Botrityscinerea in vitro [10]: 93%
- Activity compared with the positive control when encapsulated in Pluronic F-127 micelle (in words): equal to the activity of the positive control

Compound: CC(=O)Oc1cc(C)c(C/C=C(\C)CCC=C(C)C)c(OC(C)=O)c1 [Formula 5]
- inhibition at 50 ppm (encapsulated in Polycaprolactone (Diblock) micelles, 50 ppm, 72 hours, read-out: Mycelial inhibition percentage of Botrityscinerea in vitro): 16%
- inhibition at 150 ppm (encapsulated in Polycaprolactone (Diblock) micelles, 150 ppm, 72 hours, read-out: Mycelial inhibition percentage of Botrityscinerea in vitro): 39%
- inhibition at 250 ppm (encapsulated in Polycaprolactone (Diblock) micelles, 250 ppm, 72 hours, read-out: Mycelial inhibition percentage of Botrityscinerea in vitro): 80%
- inhibition at 50 ppm (free compound, 50 ppm in PDA, 48 hours of incubation, read-out: Mycelial inhibition percentage of Botrityscinerea in vitro): 24%
- inhibition at 150 ppm (free compound, 150 ppm in PDA, 48 hours of incubation, read-out: Mycelial inhibition percentage of Botrityscinerea in vitro): 55%
- inhibition at 250 ppm (free compound, 250 ppm in PDA, 48 hours of incubation, read-out: Mycelial inhibition percentage of Botrityscinerea in vitro): 78%

Compound: CC(C)=CCC/C(C)=C/Cc1c(C)cc(O)c(C/C=C(\C)CCC=C(C)C)c1O [Formula 2]
- inhibition at 50 ppm [1]: 25%
- inhibition at 150 ppm [2]: 61%
- inhibition at 250 ppm [3]: 93%
- inhibition at 50 ppm [4]: 81 to 99%
- inhibition at 150 ppm [5]: 91%
- inhibition at 250 ppm [6]: 96%
- inhibition at 50 ppm [7]: 16%
- inhibition at 150 ppm [8]: 36%
- inhibition at 250 ppm [9]: 37%
- Mycelial inhibition percentage of Botrityscinerea in vitro [10]: 85%
- Activity compared with the positive control when encapsulated in Pluronic F-127 micelle (in words): equal to the activity of the positive control

Compound: CC(C)=CCC/C(C)=C/Cc1c(O)cc(C)cc1O [Formula 3]
- inhibition at 50 ppm [1]: 37%
- inhibition at 150 ppm [2]: 65%
- inhibition at 250 ppm [3]: 82%
- inhibition at 50 ppm [7]: 9%
- inhibition at 150 ppm [8]: 32%
- inhibition at 250 ppm [9]: 42%
- Effect on the mycelium of the pathogen when encapsulated in polycaprolactone micelles (in words): inactive

Compound: CC(=O)Oc1cc(C)cc(OC(C)=O)c1C/C=C(\C)CCC=C(C)C [Formula 7]
- inhibition at 50 ppm [1]: 8%
- inhibition at 150 ppm [2]: 51%
- inhibition at 250 ppm [3]: 82%
- inhibition at 50 ppm [7]: 32%
- inhibition at 150 ppm [8]: 35%
- inhibition at 250 ppm [9]: 59%

Compound: CC(C)=CCC/C(C)=C/Cc1c(C)cc(O)cc1O [Formula 1]
- inhibition at 50 ppm [1]: 0%
- inhibition at 150 ppm [2]: 25%
- inhibition at 250 ppm [3]: 75%
- inhibition at 50 ppm [7]: 37%
- inhibition at 150 ppm [8]: 61%
- inhibition at 250 ppm [9]: 73%
- Effect on the mycelium of the pathogen when encapsulated in polycaprolactone micelles (in words): slightly improved

Compound: CC(C)=CCC/C(C)=C/Cc1c(O)cc(O)c(C/C=C(\C)CCC=C(C)C)c1C [Formula 4]
- inhibition at 50 ppm [1]: 12%
- inhibition at 150 ppm [2]: 56%
- inhibition at 250 ppm [3]: 83%
- inhibition at 50 ppm [4]: 81 to 99%
- inhibition at 150 ppm [5]: 92%
- inhibition at 250 ppm [6]: 96%
- inhibition at 50 ppm [7]: 93%
- inhibition at 150 ppm [8]: 94%
- inhibition at 250 ppm [9]: 97%
- Mycelial inhibition percentage of Botrityscinerea in vitro [10]: 82%
- Activity compared with the positive control when encapsulated in Pluronic F-127 micelle (in words): equal to the activity of the positive control

Compound: O=C1C2CC=CCC2C(=O)N1SC(Cl)(Cl)Cl (stereo not shown) [C+ (positive control), Captan, reference compound]
- Mycelial inhibition percentage of Botrityscinerea in vitro [10]: 98%
- Mycelial inhibition percentage of Botrityscinerea in vitro (encapsulated in Pluronic F-127 (Triblock) micelles, 150 ppm, 72 hours): 99%
- Mycelial inhibition percentage of Botrityscinerea in vitro (encapsulated in Pluronic F-127 (Triblock) micelles, 250 ppm, 72 hours): 99%
- Mycelial inhibition percentage of Botrityscinerea in vitro (encapsulated in Polycaprolactone (Diblock) micelles, 50 ppm, 72 hours): 93%
- Mycelial inhibition percentage of Botrityscinerea in vitro (encapsulated in Polycaprolactone (Diblock) micelles, 150 ppm, 72 hours): 99%
- Mycelial inhibition percentage of Botrityscinerea in vitro (encapsulated in Polycaprolactone (Diblock) micelles, 250 ppm, 72 hours): 99%
- Mycelial inhibition percentage of Botrityscinerea in vitro (free compound, 50 ppm in PDA, 48 hours of incubation): 87%
- Mycelial inhibition percentage of Botrityscinerea in vitro (free compound, 150 ppm in PDA, 48 hours of incubation): 94%
- Mycelial inhibition percentage of Botrityscinerea in vitro (free compound, 250 ppm in PDA, 48 hours of incubation): 94%

Compound: CC(=O)Oc1cc(C)c(C/C=C(\C)CCC=C(C)C)c(OC(C)=O)c1C/C=C(\C)CCC=C(C)C [Formula 6]
- inhibition at 50 ppm [1]: 5%
- inhibition at 150 ppm [2]: 69%
- inhibition at 250 ppm [3]: 97%
- inhibition at 50 ppm [4]: 81 to 99%
- inhibition at 150 ppm [5]: 99%
- inhibition at 250 ppm [6]: 99%
- inhibition at 50 ppm [7]: 10%
- inhibition at 150 ppm [8]: 31%
- inhibition at 250 ppm [9]: 50%
- Mycelial inhibition percentage of Botrityscinerea in vitro [10]: 93%
- Activity compared with the positive control when encapsulated in Pluronic F-127 micelle (in words): equal to the activity of the positive control
